According to US8754071B2 (priority 2011, dated 2014):

Target: T1, c-kit (Homo sapiens, UniProt P10721)
T1 construct: human Mo7e cells which endogenously express c-kit; endogenous in cells; host or cells: human Mo7e cells (promegakaryocytic leukemia line), stimulated with human recombinant SCF
Assay: Mo7e cell proliferation assay (SCF dependent proliferation)
Format: cell-based
Details: Table 1; human Mo7e cells stimulated with SCF, 48 hours, CellTiter Glo; 1% FBS; read-out: c-kit (Mo7e)
Outline: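 Human Mo7e cells with endogenous c-kit, proliferation driven by SCF, 384-well format. After 48 h at 37 °C viability read by CellTiter-Glo luminescence. IC50 taken as concentration giving response halfway between baseline and maximum.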

T1 sequence (P10721 26-976): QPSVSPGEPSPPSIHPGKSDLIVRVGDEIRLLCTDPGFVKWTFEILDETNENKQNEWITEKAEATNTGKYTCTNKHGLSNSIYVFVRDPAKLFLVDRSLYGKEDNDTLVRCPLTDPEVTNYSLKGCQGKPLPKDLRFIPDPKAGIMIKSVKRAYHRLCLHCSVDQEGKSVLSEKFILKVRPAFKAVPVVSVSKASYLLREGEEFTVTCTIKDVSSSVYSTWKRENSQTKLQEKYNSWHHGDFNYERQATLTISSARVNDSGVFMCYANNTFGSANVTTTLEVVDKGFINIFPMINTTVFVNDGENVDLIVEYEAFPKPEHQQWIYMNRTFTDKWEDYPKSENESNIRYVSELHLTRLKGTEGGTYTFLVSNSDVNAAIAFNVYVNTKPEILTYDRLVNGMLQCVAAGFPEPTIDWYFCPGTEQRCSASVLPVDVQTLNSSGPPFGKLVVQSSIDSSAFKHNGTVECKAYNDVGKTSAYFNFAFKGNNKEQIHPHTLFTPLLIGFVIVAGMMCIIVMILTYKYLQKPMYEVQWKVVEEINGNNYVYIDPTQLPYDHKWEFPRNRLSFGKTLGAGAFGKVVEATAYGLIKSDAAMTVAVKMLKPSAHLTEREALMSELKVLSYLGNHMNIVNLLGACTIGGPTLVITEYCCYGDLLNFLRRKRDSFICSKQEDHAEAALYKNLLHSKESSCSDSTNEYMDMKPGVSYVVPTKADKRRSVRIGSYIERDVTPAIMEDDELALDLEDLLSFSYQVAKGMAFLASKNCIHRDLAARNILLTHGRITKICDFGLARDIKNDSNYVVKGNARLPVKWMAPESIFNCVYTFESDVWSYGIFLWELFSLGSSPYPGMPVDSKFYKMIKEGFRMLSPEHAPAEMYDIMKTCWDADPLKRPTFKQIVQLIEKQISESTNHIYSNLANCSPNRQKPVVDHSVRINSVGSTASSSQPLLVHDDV

| SMILES | IC50 [µM] |
| --- | --- |
| O=C(Nc1cc(-c2noc(CN3CCC(F)(F)CC3)n2)ccc1F)c1cnc2ccccn12 [F46] | 0.073 |
| Cc1ccc(-c2noc(C[C@@H]3CCN(S(C)(=O)=O)C3)n2)cc1NC(=O)c1cnc2ccccn12 [F38] | 0.09 |
| COC(=O)N1CC(c2nc(-c3ccc(C)c(NC(=O)c4cnc5cc(CCC(C)=O)ccn45)c3)no2)C1 [F73, methyl 3-(3-(4-methyl-3-(7-(3-oxobutyl)imidazo[1,2-a]pyridine-3-carboxamido)phenyl)-1,2,4-oxadiazol-5-yl)azetidine-1-carboxylate] | 0.03 |
| Cc1ccc(-c2noc(C[C@@H]3CCCN3S(C)(=O)=O)n2)cc1NC(=O)c1cnc2ccccn12 [F41] | 0.092 |
| Cc1ccc(-c2noc(CCCN3CCOCC3)n2)cc1NC(=O)c1cnc2ccccn12 [F20] | 0.095 |
| COC(=O)N1CC(c2nc(-c3ccc(C)c(NC(=O)c4cnc5cc(-c6cnn(CCN7CCOCC7)c6)ccn45)c3)no2)C1 [F63] | 0.013 |
| COC(=O)N1CC(c2nc(-c3ccc(C)c(NC(=O)c4cnc5ccc(C)cn45)c3)no2)C1 [F62, methyl 3-(3-(4-methyl-3-(6-methylimidazo[1,2-a]pyridine-3-carboxamido)phenyl)-1,2,4-oxadiazol-5-yl)azetidine-1-carboxylate] | 0.036 |
| Cc1ccn2c(C(=O)Nc3cc(-c4noc(N5CCC(F)(F)C5)n4)ccc3C)cnc2c1 [F92] | 0.021 |
| COC(=O)N1CC(c2nc(-c3ccc(C)c(NC(=O)c4cnc5cc(F)ccn45)c3)no2)C1 [F54] | 0.037 |
| O=C(Nc1cc(-c2noc(CN3CCC(F)(F)C3)n2)ccc1F)c1cnc2ccccn12 [F45] | 0.09 |
| Cc1ccc(-c2noc(C3CN(S(N)(=O)=O)C3)n2)cc1NC(=O)c1cnc2ccccn12 [F23, N-(2-methyl-5-(5-(1-sulfamoylazetidin-3-yl)-1,2,4-oxadiazol-3-yl)phenyl)imidazo[1,2-a]pyridine-3-carboxamide] | 0.088 |
| Cc1ccc(-c2noc(N3CC(F)(F)C3)n2)cc1NC(=O)c1cnc2cc(F)ccn12 [F87] | 0.091 |
| Cc1ccc(Nc2noc([C@H]3CCCO3)n2)cc1NC(=O)c1cnc2ccccn12 [F71] | 0.011 |
| Cc1ccc(-c2noc(CC3CCCO3)n2)cc1NC(=O)c1cnc2ccccn12 (stereo not shown) [F18] | 0.064 |
| COC(=O)N1CC(c2nc(-c3ccc(C)c(NC(=O)c4cnc5ccc(OC)cn45)c3)no2)C1 [F60] | 0.028 |
| Cc1ccc(-c2nc(N3CC(F)(F)C3)no2)cc1NC(=O)c1cnc2ccccn12 [F2] | 0.013 |
| Cc1ccc(-c2noc(N3CCC3)n2)cc1NC(=O)c1cnc2ccccn12 [F77, N-(5-(5-(azetidin-1-yl)-1,2,4-oxadiazol-3-yl)-2-methylphenyl)imidazo[1,2-a]pyridine-3-carboxamide] | 0.132 |
| Cc1ccc(-c2nc(N3C[C@@H]4C[C@H]3CO4)no2)cc1NC(=O)c1cnc2ccccn12 [F94] | 0.092 |
| Cc1ccn2c(C(=O)Nc3cc(-c4noc(N5CCOCC5)n4)ccc3C)cnc2c1 [F91] | 0.064 |
| COC(=O)N1CC(c2nc(-c3ccc(C)c(NC(=O)c4cnc5ccc(C(F)(F)F)cn45)c3)no2)C1 [F52, methyl 3-(3-(4-methyl-3-(6-(trifluoromethyl)imidazo[1,2-a]pyridine-3-carboxamido)phenyl)-1,2,4-oxadiazol-5-yl)azetidine-1-carboxylate] | 0.218 |
| Cc1ccc(-c2noc([C@H]3CCC(F)(F)CO3)n2)cc1NC(=O)c1cnc2ccccn12 [F12] | 0.032 |
| Cc1ccc(-c2noc(C3CCCCO3)n2)cc1NC(=O)c1cnc2ccccn12 (stereo not shown) [F8] | 0.042 |
| COC(=O)N1CC(c2nc(-c3cc(NC(=O)c4cnc5ccccn45)c(C)cc3C)no2)C1 [F79, methyl 3-(3-(5-(imidazo[1,2-a]pyridine-3-carboxamido)-2,4-dimethylphenyl)-1,2,4-oxadiazol-5-yl)azetidine-1-carboxylate] | 0.037 |

Same assay, conditions: Table 2; human Mo7e cells stimulated with SCF, 48 hours, CellTiter Glo; 1% FBS; read-out: c-kit (Mo7e)

| SMILES | IC50 [µM] |
| --- | --- |
| Cc1ccc(-c2noc(CCC(=O)N3CCC(F)(F)C3)n2)cc1NC(=O)c1cnc2ccccn12 [F125] | 0.426 |
| Cc1ccc(-c2noc(CNC(=O)C3(C)COC3)n2)cc1NC(=O)c1cnc2ccccn12 [F148] | 0.15 |
| Cc1ccc(-c2noc([C@H]3COCCN3)n2)cc1NC(=O)c1cnc2ccccn12 [F118] | 0.936 |
| Cc1ccc(-c2noc(C3CN(S(=O)(=O)C4CCN(C(=O)OC(C)(C)C)CC4)C3)n2)cc1NC(=O)c1cnc2ccccn12 [F163] | 0.185 |
| Cc1ccc(-c2noc(C3CNCCO3)n2)cc1NC(=O)c1cnc2ccccn12 (stereo not shown) [F188] | 0.399 |
| Cc1ccc(-c2noc(C3CN(C(=O)N(C)C)C3)n2)cc1NC(=O)c1cnc2ccccn12 [F174] | 0.831 |
| CC(=O)N1CCC(c2nc(-c3ccc(C)c(NC(=O)c4cnc5ccccn45)c3)no2)CC1 [F193] | 0.354 |
| Cc1ccc(-c2noc(CC3CN(C(=O)OC(C)(C)C)C3)n2)cc1NC(=O)c1cnc2ccccn12 [F283] | 1.63 |
| Cc1ccc(-c2noc(C3CN(C(=O)OCC(F)(F)F)C3)n2)cc1NC(=O)c1cnc2ccccn12 [F264] | 0.438 |
| COC(=O)N1CC(c2nc(-c3ccc(C)c(NC(=O)c4cnc5ccc(CCCc6nn[nH]n6)cn45)c3)no2)C1 [F310] | > 10 |
| COCCS(=O)(=O)N1CC(c2nc(-c3ccc(F)c(NC(=O)c4cnc5ccccn45)c3)no2)C1 [F222] | 0.376 |
| CC(=O)N1CCOC[C@H]1c1nc(-c2ccc(C)c(NC(=O)c3cnc4ccccn34)c2)no1 [F275] | 1.23 |
| Cc1ccc(-c2noc(C3CCN(C(=O)OC(C)(C)C)C3)n2)cc1NC(=O)c1cnc2ccccn12 (stereo not shown) [F107] | 0.912 |
| Cc1ccc(-c2noc([C@@H]3CCN3C(=O)OC3(C)CC3)n2)cc1NC(=O)c1cnc2ccccn12 [F202] | 0.208 |
| Cc1ccc(-c2noc(C[C@H]3CCN(S(C)(=O)=O)C3)n2)cc1NC(=O)c1cnc2ccccn12 [F206] | 0.169 |
| Cc1ccc(-c2noc(C3CN(C(=O)OCCO)C3)n2)cc1NC(=O)c1cnc2ccccn12 [F150] | 0.718 |
| COC(=O)N1CC(C)(c2nc(-c3ccc(C)c(NC(=O)c4cnc5ccccn45)c3)no2)C1 [F240] | 0.249 |
| COC(=O)N1CC(c2nc(-c3ccc(C)c(NC(=O)c4cnc5ccc(C#N)cn45)c3)no2)C1 [F236] | 0.103 |
| Cc1ccc(-c2noc(CN3CC(C#N)C3)n2)cc1NC(=O)c1cnc2ccc(-c3cnn(C)c3)cn12 [F256] | 0.106 |
| COC(=O)N1CC(c2nc(-c3ccc(C)c(NC(=O)c4cnc5ccc(C(C)=O)cn45)c3)no2)C1 [F245] | 0.178 |
| Cc1ccc(-c2noc([C@@H]3COCCN3)n2)cc1NC(=O)c1cnc2ccccn12 [F276] | 1.24 |
| Cc1ccc(-c2noc([C@@H]3CCCN(C(=O)OC(C)(C)C)C3)n2)cc1NC(=O)c1cnc2ccccn12 [F186] | 0.291 |
| Cc1ccc(-c2noc(C3CN(C(=O)OC(C)C)C3)n2)cc1NC(=O)c1cnc2ccccn12 [F234] | 0.245 |

| SMILES | IC50 [µM] |
| --- | --- |
| Cc1ccc(-c2noc([C@@H]3CCN3)n2)cc1NC(=O)c1cnc2ccccn12 [F136] | 0.543 |
| COC(=O)N1CC[C@H](Cc2nc(-c3ccc(C)c(NC(=O)c4cnc5ccccn45)c3)no2)C1 [F205] | 0.284 |
| Cc1ccc(-c2noc(C3CCCNC3)n2)cc1NC(=O)c1cnc2ccccn12 (stereo not shown) [F274] | 1.2 |
| Cc1ccc(-c2noc(CN3CC(O)C3)n2)cc1NC(=O)c1cnc2ccccn12 [F131] | 0.738 |
| Cc1ccc(-c2noc(C3CN(C(=O)OCCCN4CCOCC4)C3)n2)cc1NC(=O)c1cnc2ccccn12 [F135] | 0.75 |
| Cc1ccc(-c2noc(CN3CCCC3=O)n2)cc1NC(=O)c1cnc2ccccn12 [F143] | 0.314 |
| Cc1ccc(-c2noc(CCN3CC(F)(F)C3)n2)cc1NC(=O)c1cnc2ccccn12 [F179] | 0.119 |
| COC(=O)N1CC(c2nc(-c3ccc(C)c(NC(=O)c4cnc5ccc(C(F)(F)F)cn45)c3)no2)C1 [F233] | 0.218 |
| COC(=O)N1CC[C@H]1c1nc(-c2ccc(C)c(NC(=O)c3cnc4ccc(C)cn34)c2)no1 [F262] | 0.309 |
| COC(=O)N1CC(c2nc(-c3ccc(C)c(NC(=O)c4cnc5cc(N6CCOC6=O)ccn45)c3)no2)C1 [F250] | 0.114 |
| COC(=O)N1CC(c2nc(-c3cc(NC(=O)c4cnc5ccccn45)c(C)cc3F)no2)C1 [F231] | 0.439 |
| Cc1ccc(-c2noc([C@@H](C)N3CC(F)(F)C3)n2)cc1NC(=O)c1cnc2ccccn12 [F226] | 0.112 |
| Cc1ccc(-c2noc([C@@H](C)N3CCC(F)(F)C3)n2)cc1NC(=O)c1cnc2ccccn12 [F227] | 0.119 |
| COC1CN(c2nc(-c3ccc(C)c(NC(=O)c4cnc5cc(C)ccn45)c3)no2)C1 [F254] | 0.111 |
| Cc1ccc(-c2noc(CCN3CCOCC3)n2)cc1NC(=O)c1cnc2ccccn12 [F180] | 0.169 |
| Cn1ccc(S(=O)(=O)N2CC(c3nc(-c4ccc(F)c(NC(=O)c5cnc6ccccn56)c4)no3)C2)n1 [F221] | 0.851 |
| Cc1ccc(-c2noc(CN3CC(S(C)(=O)=O)C3)n2)cc1NC(=O)c1cnc2ccccn12 [F291] | 1.92 |
| CC(=O)N1CCOC(c2nc(-c3ccc(C)c(NC(=O)c4cnc5ccccn45)c3)no2)C1 (stereo not shown) [F195] | 0.566 |
| Cc1ccc(-c2noc(C[C@H]3CCN(C(=O)OC(C)(C)C)C3)n2)cc1NC(=O)c1cnc2ccccn12 [F185] | 0.452 |
| COC(=O)N1CCC[C@@H]1c1nc(-c2ccc(C)c(NC(=O)c3cnc4ccccn34)c2)no1 [F212] | 0.17 |
| COC(=O)N1CC[C@@H](Cc2nc(-c3ccc(C)c(NC(=O)c4cnc5ccccn45)c3)no2)C1 [F204] | 0.2 |
| COC(=O)CCS(=O)(=O)N1CC(c2nc(-c3ccc(C)c(NC(=O)c4cnc5ccccn45)c3)no2)C1 [F161] | 0.145 |
| Cc1ccc(-c2noc([C@@H]3CN(C(=O)OC(C)(C)C)CCO3)n2)cc1NC(=O)c1cnc2ccccn12 [F122] | 0.296 |

Same assay, conditions: Table 2; values marked *: 20% FBS instead of 1% FBS; read-out: c-kit (Mo7e)

| SMILES | IC50 [µM] |
| --- | --- |
| Cc1ccc(-c2noc([C@H]3CCCO3)n2)cc1NC(=O)c1cnc2ccccn12 [F103] | 0.229 |
